{
  "source": "patent US20240008480A1",
  "about": "“MICROCAPSULE WITH ACETAMIDES AND DIFLUFENICAN” (MONSANTO TECHNOLOGY LLC, priority 2020, published 2024)",
  "key": {"[1]": {"system": "proso millet (PANMI)", "assay": "Greenhouse pre-emergent efficacy, Example 3B", "format": "in vivo, Panicum miliaceum", "conditions": "both rates tested", "source_text": "(§1) ACC, DFF and MRB were used as the commercial products Warrant®, Brodal® and TriCor® DF as described in Example 3A above. Further, also a DFF+MRB pre-mix (200 g/L DFF+400 g/L MRB, suspension concentrate) was used. For GR (glyphosate resistant) palmer amaranth (AMAPA), at 1X rate, all 2- and 3-way treatments provided >95% control. Except for the DFF+MRB pre-mix, these treatments also provided >95% control of GR AMAPA at ½X rate as well. No single active ingredient provided acceptable control of GR AMAPA in this trial."}, "[2]": {"system": "GR (glyphosate resistant) palmer amaranth (AMAPA)", "assay": "Greenhouse pre-emergent efficacy, Example 3B", "format": "in vivo, Amaranthus palmeri", "source_text": "as §1"}, "[3]": {"system": "glyphosate resistant Canola (Roundup Ready® Canola)", "assay": "Greenhouse post-emergent efficacy in glyphosate resistant Canola, Example 3C", "format": "in vivo", "conditions": "text statement on Table 3C", "experimental": "ACC and DFF were used as the commercial products Warrant® and Brodal® as described in Example 3A above. The seeds of glyphosate resistant Canola (Roundup Ready® Canola) were planted in 3.5-inches (8.89 cm) square plastic pots filled with a potting media of 75% silt loam and 25% Redi-earth (Sun Gro, Bellevue, WA). The temperature conditions were 22° C. day and 17° C. night with 14 hours of supplemental light (approximately 600 microeinsteins). The pots are placed in a controlled-environment greenhouse equipped with sub-irrigation. The treatments applications were applied to the plants with a track sprayer generally using a TTI110015 nozzle spray nozzle. The spray nozzle was 16 inches (40.64 cm) above the top of the plants and a spray volume rate of about 140 L/ha was applied. The plants were sprayed when canola was at the V3-V4 growth stage. Visual ratings (% control) were collected at 14 DAT."}},
  "data": [
    {"compound": "CCOCN(C(=O)CCl)c1c(C)cccc1CC", "note": "[ACC, 2-chloro-N-(ethoxymethyl)-N-(2-ethyl-6-methylphenyl)acetamide]", "values": [
      {"measurement": "control of proso millet (PANMI), in words", "setting": "[1]", "value": "weak control"},
      {"measurement": "control of GR AMAPA, in words", "setting": "[2]", "value": "weak control"},
      {"measurement": "herbicidal activity on glyphosate resistant Canola, in words", "setting": "[3]", "value": "very low herbicidal activity"}
    ]},
    {"compound": "O=C(Nc1ccc(F)cc1F)c1cccnc1Oc1cccc(C(F)(F)F)c1", "note": "[DFF, N-(2,4-difluorophenyl)-2-[3-(trifluoromethyl)phenoxy]-3-pyridinecarboxamide]", "values": [
      {"measurement": "control of proso millet (PANMI), in words", "setting": "[1]", "value": "weak control"},
      {"measurement": "control of GR AMAPA, in words", "setting": "[2]", "value": "weak control"}
    ]}
  ]
}
